# Measurements published in ChEMBL document CHEMBL1201862, “PubChem BioAssay data set” (2004).
# Active and inactive are the calls of the source.
# Key:
# Genome polyprotein = Genome polyprotein (dengue virus type 2, UniProt P29990); assay: flavivirus cap methylation enzyme inhibition – biochemical, confirmation dose response, primary screen (AID 588689); assay type: functional
# [1] = biological target: Glucose-6-phosphate 1-dehydrogenase (Homo sapiens, UniProt P11413); assay: inhibition of Homo sapiens G6PD, dose series – biochemical, fluorescence, selectivity assay for P. falciparum G6PD inhibitor project, dose response (AID 504792); assay type: functional
# [2] = biological target: Heat shock protein HSP 90-alpha (Homo sapiens, UniProt P07900); assay type: functional, organism-based
# Beta Lactamase = Beta Lactamase (Pseudomonas aeruginosa, UniProt Q932Y6); assay: BLA reporter interference, concentration series – BLA reporter cells, FRET fluorescence, artefact control for NOD2-RIPK2 interaction inhibitor project, dose response (AID 651552); assay type: functional, cell-based
# Vero = assay: viability of Vero cells under compound – cytotoxicity control for flavivirus capping enzyme inhibitors (AID 588742); assay type: functional; settings: Chlorocebus sabaeus
# [3] = biological target: T1, Rac GTPase-activating protein 1 (Homo sapiens, UniProt Q9H0H5); assay: blockers of MgcRacGAP-driven Rac1 GTP hydrolysis – biochemical, ADP Hunter fluorescence, primary and confirmatory, confirmation (AID 624330); assay type: functional
# T1 sequence (Q9H0H5 whole entry): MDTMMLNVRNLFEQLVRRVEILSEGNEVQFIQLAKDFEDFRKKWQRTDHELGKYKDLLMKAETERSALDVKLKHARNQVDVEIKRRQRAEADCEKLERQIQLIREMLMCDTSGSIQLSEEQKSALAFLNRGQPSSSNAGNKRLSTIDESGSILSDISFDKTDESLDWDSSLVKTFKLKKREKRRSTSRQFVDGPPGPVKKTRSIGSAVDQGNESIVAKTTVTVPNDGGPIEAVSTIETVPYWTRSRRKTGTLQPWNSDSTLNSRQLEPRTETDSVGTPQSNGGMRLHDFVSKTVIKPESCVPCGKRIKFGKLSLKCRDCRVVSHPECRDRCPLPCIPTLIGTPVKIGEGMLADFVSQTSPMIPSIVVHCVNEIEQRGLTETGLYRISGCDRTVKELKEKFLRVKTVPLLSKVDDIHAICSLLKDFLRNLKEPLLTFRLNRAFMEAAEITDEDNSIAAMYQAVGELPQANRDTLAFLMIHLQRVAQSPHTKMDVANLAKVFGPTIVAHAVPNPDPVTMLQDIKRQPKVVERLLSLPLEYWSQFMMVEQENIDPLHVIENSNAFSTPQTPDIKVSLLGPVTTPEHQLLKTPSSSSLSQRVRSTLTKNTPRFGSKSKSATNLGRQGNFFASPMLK
# [4] = biological target: Photoreceptor-specific nuclear receptor (Homo sapiens, UniProt Q9Y5X4); assay type: functional, cell-based;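 further: CHO-S cells with Gal4-NCOR and VP16-NR2E3 two-hybrid luciferase reporter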
# [5] = viability loss in HeLa cells – cytotoxicity control for MgcRacGAP inhibitor project, dose response (AID 624300); assay type: functional
# [6] = Fluorescence-based cell-based high throughput dose response assay for inhibitors of the interaction of nucleotide-binding oligomerization domain containing 2 (NOD2) and the receptor-interacting serine-threonine kinase 2 (RIPK2).; assay type: functional; settings: Homo sapiens
# Protein RecA = biological target: T2, Protein RecA (Mycobacterium tuberculosis, UniProt P9WHJ3); assay: Fluorescence Cell-Free Homogeneous Dose Retest to Identify Inhibitors of RecA-Intein Splicing Activity. [Related pubchem assays (depositor defined):AID2097, AID2223, AID489010, AID492950]; assay type: functional
# T2 sequence (P9WHJ3 whole entry): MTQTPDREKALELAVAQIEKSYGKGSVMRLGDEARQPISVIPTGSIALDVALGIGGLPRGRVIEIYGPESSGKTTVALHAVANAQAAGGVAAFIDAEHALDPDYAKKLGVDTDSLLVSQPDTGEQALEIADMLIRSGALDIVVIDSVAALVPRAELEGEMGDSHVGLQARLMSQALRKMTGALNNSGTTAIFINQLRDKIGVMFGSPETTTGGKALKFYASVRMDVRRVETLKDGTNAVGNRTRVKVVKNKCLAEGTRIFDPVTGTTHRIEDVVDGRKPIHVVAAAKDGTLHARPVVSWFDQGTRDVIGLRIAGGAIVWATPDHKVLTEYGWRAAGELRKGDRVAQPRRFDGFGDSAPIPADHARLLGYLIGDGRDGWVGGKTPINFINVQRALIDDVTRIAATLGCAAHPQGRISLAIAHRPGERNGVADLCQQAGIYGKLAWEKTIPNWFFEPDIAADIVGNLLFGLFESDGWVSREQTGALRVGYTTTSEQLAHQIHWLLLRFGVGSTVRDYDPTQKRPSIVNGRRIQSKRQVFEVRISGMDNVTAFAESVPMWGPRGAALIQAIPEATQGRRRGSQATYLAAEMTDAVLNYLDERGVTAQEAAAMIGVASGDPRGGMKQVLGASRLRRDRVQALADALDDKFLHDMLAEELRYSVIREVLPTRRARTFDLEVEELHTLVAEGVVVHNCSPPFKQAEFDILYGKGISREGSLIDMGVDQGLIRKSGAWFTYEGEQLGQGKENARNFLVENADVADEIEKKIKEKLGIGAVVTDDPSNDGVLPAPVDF
# [7] = loss of viability in HepG2 cells – cell-based, CellTiter-Glo, cherry-picked, cytotoxicity control for Shn3 inhibitor project, dose response (AID 624134); assay type: functional
# [8] = reduction of Shn3 3'UTR-driven luciferase in osteoblasts – cell-based, Clone20 osteoblasts, firefly luciferase, cherry-picked, dose response (AID 624132); assay type: functional;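 further: firefly luciferase luminescence from reporter carrying the Shn3 3'UTR in osteoblasts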
# [9] = biological target: T3, Replicative DNA helicase DnaB (Mycobacterium tuberculosis, UniProt P9WMR3); assay: DnaB intein splicing inhibitors, dose response, biochemical, cell-free fluorescence (AID 449749); assay type: functional
# T3 sequence (P9WMR3 whole entry): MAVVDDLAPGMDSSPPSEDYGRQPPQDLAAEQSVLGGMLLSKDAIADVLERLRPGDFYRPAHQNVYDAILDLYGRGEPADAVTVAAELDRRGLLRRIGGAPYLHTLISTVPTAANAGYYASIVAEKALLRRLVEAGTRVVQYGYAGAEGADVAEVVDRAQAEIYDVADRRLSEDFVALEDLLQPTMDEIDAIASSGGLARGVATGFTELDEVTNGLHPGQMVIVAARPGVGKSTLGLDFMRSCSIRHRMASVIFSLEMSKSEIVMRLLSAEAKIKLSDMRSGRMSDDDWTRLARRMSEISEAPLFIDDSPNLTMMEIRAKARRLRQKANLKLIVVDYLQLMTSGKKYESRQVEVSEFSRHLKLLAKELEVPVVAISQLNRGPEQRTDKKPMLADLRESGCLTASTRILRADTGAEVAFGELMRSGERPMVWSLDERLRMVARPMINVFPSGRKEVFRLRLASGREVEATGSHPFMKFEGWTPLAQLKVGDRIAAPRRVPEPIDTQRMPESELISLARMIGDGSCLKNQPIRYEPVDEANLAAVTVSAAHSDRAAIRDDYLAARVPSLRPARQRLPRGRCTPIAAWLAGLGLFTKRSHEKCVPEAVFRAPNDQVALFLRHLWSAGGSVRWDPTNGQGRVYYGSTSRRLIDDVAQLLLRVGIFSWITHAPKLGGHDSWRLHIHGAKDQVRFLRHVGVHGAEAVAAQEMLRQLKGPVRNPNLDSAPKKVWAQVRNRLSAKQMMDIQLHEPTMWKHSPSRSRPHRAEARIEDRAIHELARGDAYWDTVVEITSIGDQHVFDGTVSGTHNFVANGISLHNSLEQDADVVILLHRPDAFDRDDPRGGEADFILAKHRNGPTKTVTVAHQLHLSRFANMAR
# [10] = non-specific 3'UTR reporter inhibition in Clone20-Shn3RL – cell-based, Renilla luciferase, cherry-picked, counter-screen for Shn3 inhibitor project, dose response (AID 624133); assay type: functional
# [11] = mouse fibroblast viability loss – cell-based, cherry-pick samples, set 2, cytotoxicity control for T. cruzi growth inhibitor project, dose response (AID 651817); assay type: functional; settings: NIH3T3
# [12] = viability loss in HEK293T cells – cell-based, cherry-picks, cytotoxicity control for HIV Vif inhibitor project, dose response (AID 652208); assay type: functional
# [13] = IGROV1 cell killing – plate reader, dry powder samples, PAX8 inhibitor project, dose response (AID 743043); assay type: functional, cell-based; settings: IGROV-1
# Paired box protein Pax-8 = Paired box protein Pax-8 (Homo sapiens, UniProt Q06710); assay: PAX8 transcriptional activity inhibition in RMG-I – RMG-I cells, luciferase, cherry-pick, dose response (AID 687027); assay type: functional, cell-based;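 further: luciferase reporter driven by Pax8 target thyroperoxidase promoter measured by SteadyGlo luminescence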
# [14] = OVCAR-3 cell viability loss – plate reader, dry powder samples, PAX8 inhibitor project, dose response (AID 743044); assay type: functional, cell-based
# [15] = biological target: T4, Small ubiquitin-related modifier 1 (Homo sapiens, UniProt P63165); assay: SUMO1 protein interaction blockers, potency – biochemical, fluorescence polarization, uHTS hits, dose response (AID 624382); assay type: functional; settings: read-out: IC50_Mean
# [16] = biological target: T5, RNA-binding protein pos-1 (Caenorhabditis elegans, UniProt G5EF15); assay: disruptors of C. elegans POS-1 RNA interaction – biochemical, fluorescence polarization, dose response (AID 1964);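 further: purified POS-1 fused to maltose binding protein made in E. coli; potency of compounds blocking POS-1 binding to fluorescent RNA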
# T5 sequence (G5EF15 whole entry): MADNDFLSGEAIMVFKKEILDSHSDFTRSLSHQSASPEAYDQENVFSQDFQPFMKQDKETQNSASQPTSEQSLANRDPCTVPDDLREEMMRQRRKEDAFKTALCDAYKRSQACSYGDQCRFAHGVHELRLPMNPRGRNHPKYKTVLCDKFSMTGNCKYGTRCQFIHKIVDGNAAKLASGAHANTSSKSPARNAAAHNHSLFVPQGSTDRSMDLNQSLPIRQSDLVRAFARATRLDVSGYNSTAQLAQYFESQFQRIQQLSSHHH
# [17] = biological target: T4, Small ubiquitin-related modifier 1; assay: SUMO1 protein-protein binding blockers, potency – biochemical, FRET, dose response (AID 624383); assay type: functional; settings: read-out: IC50_Mean
# [18] = biological target: T6, Carboxy-terminal domain RNA polymerase II polypeptide A small phosphatase 1 (Homo sapiens, UniProt Q9GZU7); assay: CTDSP1 inhibitors, concentration-response, biochemical, absorbance readout, ultra-high-throughput screen actives (AID 540297); assay type: functional
# T6 sequence (Q9GZU7 whole entry): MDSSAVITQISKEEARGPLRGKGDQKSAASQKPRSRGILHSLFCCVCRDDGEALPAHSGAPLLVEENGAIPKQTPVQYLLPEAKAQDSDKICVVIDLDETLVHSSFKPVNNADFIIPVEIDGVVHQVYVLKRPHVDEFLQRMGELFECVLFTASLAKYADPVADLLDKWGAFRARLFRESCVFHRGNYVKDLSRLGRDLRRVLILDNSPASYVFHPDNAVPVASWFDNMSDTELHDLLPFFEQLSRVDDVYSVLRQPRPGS
# [19] = biological target: T7, Low molecular weight phosphotyrosine protein phosphatase (Homo sapiens, UniProt P24666); assay type: functional; settings: read-out: IC50_Mean
# T7 sequence (P24666 whole entry): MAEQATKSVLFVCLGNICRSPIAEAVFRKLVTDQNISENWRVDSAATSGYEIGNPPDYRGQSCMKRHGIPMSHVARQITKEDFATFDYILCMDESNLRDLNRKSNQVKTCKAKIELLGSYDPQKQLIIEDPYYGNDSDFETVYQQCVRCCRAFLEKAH
# [20] = biological target: T7, Low molecular weight phosphotyrosine protein phosphatase; assay type: functional; settings: read-out: IC50_Mean; remark: listed apart in the source
# [21] = biological target: T8, Zinc finger protein mex-5 (Caenorhabditis elegans, UniProt Q9XUB2); assay: potency of MEX-5 RNA-binding blockers – biochemical, C. elegans, fluorescence polarization, dose response (AID 1960)
# T8 sequence (Q9XUB2 whole entry): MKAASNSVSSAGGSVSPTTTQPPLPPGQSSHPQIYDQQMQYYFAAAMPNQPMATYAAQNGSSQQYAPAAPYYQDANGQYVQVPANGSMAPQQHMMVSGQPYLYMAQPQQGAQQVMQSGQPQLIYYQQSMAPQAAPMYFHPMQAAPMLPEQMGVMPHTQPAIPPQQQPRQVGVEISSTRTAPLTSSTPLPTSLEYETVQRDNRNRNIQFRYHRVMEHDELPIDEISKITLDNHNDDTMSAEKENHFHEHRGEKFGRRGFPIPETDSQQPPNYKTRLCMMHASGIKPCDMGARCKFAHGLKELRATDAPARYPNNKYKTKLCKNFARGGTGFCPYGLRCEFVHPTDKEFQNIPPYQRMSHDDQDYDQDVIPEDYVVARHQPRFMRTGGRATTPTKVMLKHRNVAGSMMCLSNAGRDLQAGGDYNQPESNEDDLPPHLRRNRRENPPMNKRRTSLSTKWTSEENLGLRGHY
# T4 sequence (P63165 whole entry, the tested form may be a part): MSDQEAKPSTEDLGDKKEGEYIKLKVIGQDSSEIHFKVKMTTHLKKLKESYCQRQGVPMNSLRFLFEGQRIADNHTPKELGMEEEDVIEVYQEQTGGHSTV
# Sequence of Beta Lactamase (Q932Y6 whole entry): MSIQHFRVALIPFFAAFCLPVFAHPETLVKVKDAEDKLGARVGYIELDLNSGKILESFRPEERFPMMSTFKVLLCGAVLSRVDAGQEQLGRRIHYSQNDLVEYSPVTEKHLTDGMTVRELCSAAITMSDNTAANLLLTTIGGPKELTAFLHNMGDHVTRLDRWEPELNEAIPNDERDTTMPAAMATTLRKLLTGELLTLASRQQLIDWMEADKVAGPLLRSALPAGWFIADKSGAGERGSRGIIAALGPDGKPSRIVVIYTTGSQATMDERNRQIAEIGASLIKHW
# Sequence of Genome polyprotein (P29990 2492-3391 limits assumed): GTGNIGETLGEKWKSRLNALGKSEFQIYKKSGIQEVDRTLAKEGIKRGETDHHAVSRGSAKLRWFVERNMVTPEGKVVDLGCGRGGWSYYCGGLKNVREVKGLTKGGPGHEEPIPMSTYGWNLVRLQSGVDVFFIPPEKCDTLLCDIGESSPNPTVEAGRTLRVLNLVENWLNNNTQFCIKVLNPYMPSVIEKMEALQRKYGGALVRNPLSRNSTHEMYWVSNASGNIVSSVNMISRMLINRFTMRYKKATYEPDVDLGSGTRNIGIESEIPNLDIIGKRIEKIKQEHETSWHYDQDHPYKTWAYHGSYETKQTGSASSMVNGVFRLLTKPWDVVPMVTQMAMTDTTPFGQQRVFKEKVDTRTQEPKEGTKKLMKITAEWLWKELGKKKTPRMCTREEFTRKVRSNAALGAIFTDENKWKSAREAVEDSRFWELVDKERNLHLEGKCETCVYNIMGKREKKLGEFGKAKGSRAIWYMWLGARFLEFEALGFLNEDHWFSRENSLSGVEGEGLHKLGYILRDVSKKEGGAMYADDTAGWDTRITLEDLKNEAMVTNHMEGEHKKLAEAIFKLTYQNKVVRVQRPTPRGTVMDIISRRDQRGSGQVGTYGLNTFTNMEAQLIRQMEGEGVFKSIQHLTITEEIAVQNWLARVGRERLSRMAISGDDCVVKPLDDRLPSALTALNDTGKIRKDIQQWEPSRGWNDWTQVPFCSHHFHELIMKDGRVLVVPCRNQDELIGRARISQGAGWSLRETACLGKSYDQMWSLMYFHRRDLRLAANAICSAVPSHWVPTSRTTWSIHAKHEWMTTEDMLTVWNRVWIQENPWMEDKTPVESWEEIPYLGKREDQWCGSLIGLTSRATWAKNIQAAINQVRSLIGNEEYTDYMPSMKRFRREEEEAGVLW
# Sequence of Photoreceptor-specific nuclear receptor (Q9Y5X4 whole entry, the tested form may be a part): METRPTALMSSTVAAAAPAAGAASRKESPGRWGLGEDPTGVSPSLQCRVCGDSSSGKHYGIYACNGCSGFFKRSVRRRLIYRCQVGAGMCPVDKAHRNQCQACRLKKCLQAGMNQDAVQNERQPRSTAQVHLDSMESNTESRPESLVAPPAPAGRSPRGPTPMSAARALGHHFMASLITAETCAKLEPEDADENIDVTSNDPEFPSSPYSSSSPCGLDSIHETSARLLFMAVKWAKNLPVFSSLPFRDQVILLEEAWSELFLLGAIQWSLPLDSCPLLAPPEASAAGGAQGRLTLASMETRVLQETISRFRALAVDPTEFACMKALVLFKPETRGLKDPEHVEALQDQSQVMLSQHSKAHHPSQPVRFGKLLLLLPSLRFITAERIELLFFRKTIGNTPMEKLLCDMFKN
# Sequence of Glucose-6-phosphate 1-dehydrogenase (P11413 whole entry): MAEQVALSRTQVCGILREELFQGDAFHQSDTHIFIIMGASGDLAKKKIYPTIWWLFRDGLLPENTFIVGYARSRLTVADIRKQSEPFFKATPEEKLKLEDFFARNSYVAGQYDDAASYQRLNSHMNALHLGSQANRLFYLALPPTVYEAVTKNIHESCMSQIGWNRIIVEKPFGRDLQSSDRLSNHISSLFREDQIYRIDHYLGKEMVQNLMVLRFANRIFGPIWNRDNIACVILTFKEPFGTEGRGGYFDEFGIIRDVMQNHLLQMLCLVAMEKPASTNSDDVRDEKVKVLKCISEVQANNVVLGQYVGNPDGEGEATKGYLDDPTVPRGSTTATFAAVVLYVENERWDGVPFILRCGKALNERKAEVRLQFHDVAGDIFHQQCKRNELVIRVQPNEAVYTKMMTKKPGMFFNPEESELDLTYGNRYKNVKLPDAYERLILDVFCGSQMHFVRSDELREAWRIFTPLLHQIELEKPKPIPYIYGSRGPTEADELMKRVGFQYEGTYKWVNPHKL
# Sequence of Paired box protein Pax-8 (Q06710 whole entry): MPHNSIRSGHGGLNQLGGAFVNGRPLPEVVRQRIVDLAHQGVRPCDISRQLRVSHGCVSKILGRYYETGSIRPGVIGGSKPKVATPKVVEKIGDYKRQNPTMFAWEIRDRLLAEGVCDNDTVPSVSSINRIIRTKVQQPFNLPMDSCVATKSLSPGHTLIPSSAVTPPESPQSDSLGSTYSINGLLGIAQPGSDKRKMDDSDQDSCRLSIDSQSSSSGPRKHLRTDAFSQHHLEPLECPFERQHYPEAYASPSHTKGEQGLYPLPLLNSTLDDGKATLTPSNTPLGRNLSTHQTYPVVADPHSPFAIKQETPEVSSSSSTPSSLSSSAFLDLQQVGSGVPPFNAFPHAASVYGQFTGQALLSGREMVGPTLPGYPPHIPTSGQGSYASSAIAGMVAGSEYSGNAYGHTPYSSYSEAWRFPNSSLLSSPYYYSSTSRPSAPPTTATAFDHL
structure (smiles),measurement,setting,value
O=C1/C(=C\c2ccc([N+](=O)[O-])cc2)CS(=O)(=O)C/C1=C/c1ccc([N+](=O)[O-])cc1,IC50,Genome polyprotein,> 100 µM (active)
same,IC50,[1],> 80 µM (inactive)
same,AC50,[2],0.353 µM (active)
same,IC50,Beta Lactamase,36.4 µM (inactive)
same,CC50,Vero,0.46 µM (active)
same,IC50,[3],24.8 µM (active)
same,IC50,[4],2 µM (active)
same,CC50,[5],25 µM (active)
same,IC50,[6],0.93 µM (active)
COc1ccc(CNC(=O)c2nc(S(=O)(=O)Cc3ccccc3)ncc2Cl)cc1,EC50,Protein RecA,4.07 µM (active)
same,AC50,[7],30.8 µM (active)
same,IC50,Beta Lactamase,21 µM (inactive)
same,AC50,[8],0.956 µM (active)
same,AC50,[9],4.17 µM (active)
same,AC50,[10],7.01 µM (active)
same,IC50,[6],2.96 µM (active)
C[C@H](CO)N1C[C@H](C)[C@H](CN(C)Cc2ccc(Cl)c(Cl)c2)Oc2ccc(NS(=O)(=O)c3ccc(F)cc3)cc2CC1=O,AC50,[11],9.99 µM (active)
O=C(c1cc(-c2ccncc2)nc2ccccc12)N1CCN(Cc2ccccc2)CC1,AC50,[12],> 52 µM (inactive)
Cc1ccc(S(=O)(=O)Nc2ccc3c(c2)CC(=O)N([C@@H](C)CO)C[C@@H](C)[C@H](CN(C)Cc2ccc(Cl)c(Cl)c2)O3)cc1,AC50,[11],12.3 µM (active)
same,AC50,[13],49.9 µM (active)
same,AC50,Paired box protein Pax-8,5.67 µM (active)
same,AC50,[14],31.8 µM (active)
C=CC1=C(C(=O)O)N2C(=O)[C@@H](NC(=O)/C(=N\O)c3csc(N)n3)[C@H]2SC1 (stereo in doubt),IC50,[15],> 66.6 µM (inactive)
same,EC50,[16],49.8 µM (active)
same,IC50,[17],6.25 µM (active)
same,IC50,[18],4.48 µM (active)
same,IC50,[19],21.5 µM (inactive)
same,IC50,[20],19.6 µM (active)
same,EC50,[21],33.3 µM (active)
